Source: BindingDB's records for doi:10.1021/cb700200w (Novartis, 2008)

Target: T1, Aurora kinase A (Homo sapiens, UniProt O14965)
T1 sequence (O14965 whole entry): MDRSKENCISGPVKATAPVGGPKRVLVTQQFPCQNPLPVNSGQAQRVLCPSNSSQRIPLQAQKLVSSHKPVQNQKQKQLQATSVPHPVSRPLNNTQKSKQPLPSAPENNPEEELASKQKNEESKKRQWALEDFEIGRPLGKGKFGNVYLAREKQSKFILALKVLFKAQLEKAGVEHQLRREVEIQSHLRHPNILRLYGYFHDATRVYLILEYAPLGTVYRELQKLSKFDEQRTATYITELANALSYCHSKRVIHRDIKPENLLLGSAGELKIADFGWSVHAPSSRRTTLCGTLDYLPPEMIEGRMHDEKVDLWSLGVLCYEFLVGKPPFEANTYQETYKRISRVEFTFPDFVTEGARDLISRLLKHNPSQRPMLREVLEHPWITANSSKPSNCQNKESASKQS
Assay: Aurora Kinase SPA Assay
Protocol: The biochemical activity of compounds was determined by incubation with Aurora A and substrates in the presence ATP/[gamma-33P] ATP. After incubation, the reaction was stopped and the phosphorylated substrate was separated from nonincorporated radioactive ATP using SPA beads (Amersham Pharmacia Biotech), counted using TopCount (Packard) to measure substrate-incorporated phosphate.

IC50 (pH 7, 22 °C) [nM] | IC50 [nM] | SMILES
600 |  | Nc1ccc(Nc2ncc(Br)s2)cc1 [1-N-(5-bromo-1,3-thiazol-2-yl)benzene-1,4-diamine]
1700 |  | CC(=O)c1ccc(Nc2ncc(Br)s2)cc1 [1-{4-[(5-bromo-1,3-thiazol-2-yl)amino]phenyl}ethan-1-one]
 | 4400 | CCN1CCN(Cc2ccc(Nc3ncc(C#N)s3)nc2)CC1 [2-({5-[(4-ethylpiperazin-1-yl)methyl]pyridin-2-yl}amino)-1,3-thiazole-5-carbonitrile]
 | 3800 | CN1CCN(Cc2ccc(Nc3ncc(C#N)s3)nc2)CC1 [2-({5-[(4-methylpiperazin-1-yl)methyl]pyridin-2-yl}amino)-1,3-thiazole-5-carbonitrile]
 | 5400 | N#Cc1cnc(Nc2ccc(CN3CCN(CCO)CC3)cn2)s1 [2-[(5-{[4-(2-hydroxyethyl)piperazin-1-yl]methyl}pyridin-2-yl)amino]-1,3-thiazole-5-carbonitrile]
 | 1400 | N#Cc1cnc(Nc2ccc(CN3CCOCC3)cn2)s1 [2-{[5-(morpholin-4-ylmethyl)pyridin-2-yl]amino}-1,3-thiazole-5-carbonitrile]
 | > 10000 | O=C(Nc1ccccc1)Nc1ncc(Br)s1 [3-(5-bromo-1,3-thiazol-2-yl)-1-phenylurea]
 | 1220 | COCCNC(=O)c1cccc(Nc2ncc(Br)s2)c1 [3-[(5-bromo-1,3-thiazol-2-yl)amino]-N-(2-methoxyethyl)benzamide]
 | 740 | CNC(=O)c1cccc(Nc2ncc(Br)s2)c1 [3-[(5-bromo-1,3-thiazol-2-yl)amino]-N-methylbenzamide]
 | 440 | O=C(O)c1cccc(Nc2ncc(Br)s2)c1 [3-[(5-bromo-1,3-thiazol-2-yl)amino]benzoic acid]
 | 1500 | N#Cc1cccc(Nc2ncc(Br)s2)c1 [3-[(5-bromo-1,3-thiazol-2-yl)amino]benzonitrile]
 | 880 | CNC(=O)N1CCN(Cc2ccc(Nc3ncc(C#N)s3)nc2)CC1 [4-({6-[(5-cyano-1,3-thiazol-2-yl)amino]pyridin-3-yl}methyl)-N-methylpiperazine-1-carboxamide]
330 |  | COCC(C)NC(=O)c1ccc(Nc2ncc(Br)s2)cc1 (centres undefined) [4-[(5-bromo-1,3-thiazol-2-yl)amino]-N-(1-methoxypropan-2-yl)benzamide]
1480 |  | O=C(NCCO)c1ccc(Nc2ncc(Br)s2)cc1 [4-[(5-bromo-1,3-thiazol-2-yl)amino]-N-(2-hydroxyethyl)benzamide]
980 |  | COCCN(C)C(=O)c1ccc(Nc2ncc(Br)s2)cc1 [4-[(5-bromo-1,3-thiazol-2-yl)amino]-N-(2-methoxyethyl)-N-methylbenzamide]
97 |  | COCCNC(=O)c1ccc(Nc2ncc(Br)s2)cc1 [4-[(5-bromo-1,3-thiazol-2-yl)amino]-N-(2-methoxyethyl)benzamide]
 | 4520 | CCN(CC)CCNC(=O)c1ccc(Nc2ncc(Br)s2)cc1 [4-[(5-bromo-1,3-thiazol-2-yl)amino]-N-[2-(diethylamino)ethyl]benzamide]
 | 5250 | CN(C)CCNC(=O)c1ccc(Nc2ncc(Br)s2)cc1 [4-[(5-bromo-1,3-thiazol-2-yl)amino]-N-[2-(dimethylamino)ethyl]benzamide]
 | 2300 | O=C(NCCN1CCOCC1)c1ccc(Nc2ncc(Br)s2)cc1 [4-[(5-bromo-1,3-thiazol-2-yl)amino]-N-[2-(morpholin-4-yl)ethyl]benzamide]
 | 5320 | O=C(NCCN1CCCC1)c1ccc(Nc2ncc(Br)s2)cc1 [4-[(5-bromo-1,3-thiazol-2-yl)amino]-N-[2-(pyrrolidin-1-yl)ethyl]benzamide]
2100 |  | N#Cc1ccc(Nc2ncc(Br)s2)cc1 [4-[(5-bromo-1,3-thiazol-2-yl)amino]benzonitrile]
510 |  | Oc1ccc(Nc2ncc(Br)s2)cc1 [4-[(5-bromo-1,3-thiazol-2-yl)amino]phenol]
> 10000 |  | Fc1ccc(Nc2nc(Br)cs2)cc1 [4-bromo-N-(4-fluorophenyl)-1,3-thiazol-2-amine]
 | > 10000 | Nc1ncc(Br)s1 [5-bromo-1,3-thiazol-2-amine]
